Key:
[1] = test system: SARS-CoV-2 live virus (nCoV-SH01 strain); assay: Inhibition of SARS-CoV-2 live virus on human intestinal cell line CaCO2 (viral RNA in supernatant); assay type: cell-based; conditions: CaCO2 cells, 48 hours, read-out: half inhibitory concentration, SARS-CoV-2 live virus
[2] = target: T1, 2019-HR1P (derived from the HR1 region of 2019-nCoV) (Severe acute respiratory syndrome coronavirus 2, UniProt P0DTC2); assay: Native PAGE (N-PAGE) of polypeptide mixed with 2019-HR1P; assay type: binding; conditions: 30 μM each, 37° C. for 30 minutes
SARS-CoV pseudovirus = conditions: 72 h
[3] = target: T1, 2019-HR1P (derived from the HR1 region of 2019-nCoV); assay: Circular dichroism spectroscopy of polypeptide mixed with 2019-HR1P; assay type: binding; conditions: 10 μM, phosphate buffer pH 7.2, 4° C.
WIV1-CoV pseudovirus = conditions: 72 h
Rs3367-CoV pseudovirus = conditions: 72 h
2019-nCoV pseudovirus = conditions: for IC50: 72 h
[4] = test system: cell-cell fusion mediated by the S protein of 2019-nCoV; assay type: cell-based
[5] = test system: SARS-CoV-2 live virus (nCoV-SH01 strain); design: species or system transgenic human-ACE2 mice; conditions: in vivo
2019-nCoV live virus = conditions: for IC50: 72 h; for inhibitory activity relative to EK1, 2019-nCoV live virus: fold higher than EK1

Compound	IC50 [1] [nM]	complex formation with 2019-HR1P in N-PAGE [2]	IC50 (SARS-CoV pseudovirus) [nM]	secondary structure of mixture with 2019-HR1P by circular dichroism [3]	IC50 (WIV1-CoV pseudovirus) [nM]	IC50 (Rs3367-CoV pseudovirus) [nM]	IC50 (2019-nCoV pseudovirus) [nM]	inhibitory effect on cell-cell fusion mediated by the S protein of 2019-nCoV (in words) [4]	SARS-CoV-2 viral load in the intestine [5]	SARS-CoV-2 viral load in the lung [5]	IC50 (2019-nCoV live virus) [nM]	inhibitory activity relative to EK1, 2019-nCoV live virus (2019-nCoV live virus) [times]	SARS-CoV-2 viral titer in the intestine [5]	SARS-CoV-2 viral titer in the lung [5]	activity in pseudovirus inhibition experiments (in words) (2019-nCoV pseudovirus)
CC[C@H](C)[C@H](NC(=O)[C@H](C)NC(=O)[C@H](CCC(=O)O)NC(=O)[C@H](CCC(=O)O)NC(=O)[C@H](CC(C)C)NC(=O)[C@H](CCCCN)NC(=O)[C@H](CCCCN)NC(=O)[C@H](CCSC)NC(=O)[C@H](CCC(=O)O)NC(=O)[C@H](Cc1ccc(O)cc1)NC(=O)[C@H](CCC(=O)O)NC(=O)[C@H](CC(C)C)NC(=O)[C@H](CC(=O)O)NC(=O)[C@H](CC(C)C)NC(=O)[C@H](Cc1ccccc1)NC(=O)[C@@H](NC(=O)[C@@H](NC(=O)[C@H](CC(N)=O)NC(=O)[C@@H](NC(=O)[C@H](CCC(N)=O)NC(=O)[C@H](CC(=O)O)NC(=O)[C@H](CC(C)C)NC(=O)[C@@H](N)CO)[C@@H](C)CC)C(C)C)[C@@H](C)O)C(=O)N[C@@H](CCCCN)C(=O)N[C@@H](CCCCN)C(=O)N[C@@H](CC(C)C)C(=O)N[C@@H](CCC(=O)O)C(=O)N[C@@H](CCC(=O)O)C(=O)N[C@@H](CO)C(=O)N[C@@H](Cc1ccc(O)cc1)C(=O)N[C@H](C(=O)N[C@@H](CC(=O)O)C(=O)N[C@@H](CC(C)C)C(=O)N[C@@H](CCCCN)C(=O)N[C@@H](CCC(=O)O)C(=O)N[C@@H](CC(C)C)C(=O)O)[C@@H](C)CC [EK1, reference compound]	573	formation of a six-helix bundle complex	1890	formed a 6-HB complex	2940	4000	2490	very good inhibitory effect	significantly reduce	significantly reduce					
CC[C@H](C)[C@H](NC(=O)[C@H](C)NC(=O)[C@H](CCC(=O)O)NC(=O)[C@H](CCC(=O)O)NC(=O)[C@H](CC(C)C)NC(=O)[C@H](CCCCN)NC(=O)[C@H](CCCCN)NC(=O)[C@H](CCSC)NC(=O)[C@H](CCC(=O)O)NC(=O)[C@H](Cc1ccc(O)cc1)NC(=O)[C@H](CCC(=O)O)NC(=O)[C@H](CC(C)C)NC(=O)[C@H](CC(=O)O)NC(=O)[C@H](CC(C)C)NC(=O)[C@H](Cc1ccccc1)NC(=O)[C@@H](NC(=O)[C@@H](NC(=O)[C@H](CC(N)=O)NC(=O)[C@@H](NC(=O)[C@H](CCC(N)=O)NC(=O)[C@H](CC(=O)O)NC(=O)[C@H](CC(C)C)NC(=O)[C@@H](N)CO)[C@@H](C)CC)C(C)C)[C@@H](C)O)C(=O)N[C@@H](CCCCN)C(=O)N[C@@H](CCCCN)C(=O)N[C@@H](CC(C)C)C(=O)N[C@@H](CCC(=O)O)C(=O)N[C@@H](CCC(=O)O)C(=O)N[C@@H](CO)C(=O)N[C@@H](Cc1ccc(O)cc1)C(=O)N[C@H](C(=O)N[C@@H](CC(=O)O)C(=O)N[C@@H](CC(C)C)C(=O)N[C@@H](CCCCN)C(=O)N[C@@H](CCC(=O)O)C(=O)N[C@@H](CC(C)C)C(=O)NCC(=O)N[C@@H](CO)C(=O)NCC(=O)N[C@@H](CO)C(=O)NCC(=O)NCCOCCOCCOCCOCCC(=O)N[C@@H](CSCC(=O)O[C@H]1CC[C@@]2(C)C(=CC[C@H]3[C@@H]4CC[C@H]([C@H](C)CCCC(C)C)[C@@]4(C)CC[C@@H]32)C1)C(=O)O)[C@@H](C)CC [EK1-chol]	5.5		10		40	30	20	very good inhibitory effect			36.5	67	significantly reduce	significantly reduce	
CCCCCCCCCCCCCCCC(=O)NCCCC[C@H](NC(=O)CCOCCOCCOCCOCCNC(=O)CNC(=O)[C@H](CO)NC(=O)CNC(=O)[C@H](CC(C)C)NC(=O)[C@H](CCC(=O)O)NC(=O)[C@H](CCCCN)NC(=O)[C@H](CC(C)C)NC(=O)[C@H](CC(=O)O)NC(=O)[C@@H](NC(=O)[C@H](Cc1ccc(O)cc1)NC(=O)[C@H](CO)NC(=O)[C@H](CCC(=O)O)NC(=O)[C@H](CCC(=O)O)NC(=O)[C@H](CC(C)C)NC(=O)[C@H](CCCCN)NC(=O)[C@H](CCCCN)NC(=O)[C@@H](NC(=O)[C@H](C)NC(=O)[C@H](CCC(=O)O)NC(=O)[C@H](CCC(=O)O)NC(=O)[C@H](CC(C)C)NC(=O)[C@H](CCCCN)NC(=O)[C@H](CCCCN)NC(=O)[C@H](CCSC)NC(=O)[C@H](CCC(=O)O)NC(=O)[C@H](Cc1ccc(O)cc1)NC(=O)[C@H](CCC(=O)O)NC(=O)[C@H](CC(C)C)NC(=O)[C@H](CC(=O)O)NC(=O)[C@H](CC(C)C)NC(=O)[C@H](Cc1ccccc1)NC(=O)[C@@H](NC(=O)[C@@H](NC(=O)[C@H](CC(N)=O)NC(=O)[C@@H](NC(=O)[C@H](CCC(N)=O)NC(=O)[C@H](CC(=O)O)NC(=O)[C@H](CC(C)C)NC(=O)[C@@H](N)CO)[C@@H](C)CC)C(C)C)[C@@H](C)O)[C@@H](C)CC)[C@@H](C)CC)C(=O)O [EK1-plam]			170		100	130	360	very good inhibitory effect			436	5			
ANQFNSAIGKIQDSLSSTASALGKLQDVVNQNAQALNTLVKQ (SEQ ID NO. 3) [2019-HR1P, reference compound]								no activity							no activity
